Laboratory results published in patent US20260015350A1, “AZAQUINAZOLINE PAN-KRAS INHIBITORS” (Mirati Therapeutics, Inc., priority 2022, published 2026).

Columns and labels:
[1] = tested on: KRas-mediated phosphorylation of ERK in AsPC-1 cells; assay: Inhibition of KRas-mediated phosphorylation of ERK (Cisbio HTRF pERK), AsPC-1 cells; assay type: cell-based; conditions: Homo sapiens, ASPC1, AsPC-1 cells; HTRF pERK
In short: (§1)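 Using 6,000 cells per well, compounds are applied for 3 hrs and cells then lysed at 4° C with shaking for 40 mins. Phospho-ERK is measured by HTRF after 2 hrs of lysate incubation with the d2/Cryptate antibody mixture.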

KRas^G12D = target: T1, KRas^G12D (Homo sapiens, UniProt P01116, G12D); assay: KRas binding assay (TR-FRET tracer displacement), KRas G12D
T1 construct: Biotinylated KRas (corresponding to amino acids 1-169, produced at Accelegan Inc.); biotin (biotinylated); purchased Accelegan Inc
T1 sequence (P01116 1-169 isoform P01116-2 G12D): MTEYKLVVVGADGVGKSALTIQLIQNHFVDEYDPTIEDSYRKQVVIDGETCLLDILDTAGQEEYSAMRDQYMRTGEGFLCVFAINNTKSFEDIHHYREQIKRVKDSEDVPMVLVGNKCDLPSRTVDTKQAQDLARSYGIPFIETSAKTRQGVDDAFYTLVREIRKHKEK

KRas^G12R = target: T2, KRas^G12R (Homo sapiens, UniProt P01116, G12R); assay: KRas binding assay (TR-FRET tracer displacement), KRas G12R
T2 construct: Biotinylated KRas (corresponding to amino acids 1-169, produced at Accelegan Inc.); biotin (biotinylated); purchased Accelegan Inc
T2 sequence (P01116 1-169 isoform P01116-2 G12R): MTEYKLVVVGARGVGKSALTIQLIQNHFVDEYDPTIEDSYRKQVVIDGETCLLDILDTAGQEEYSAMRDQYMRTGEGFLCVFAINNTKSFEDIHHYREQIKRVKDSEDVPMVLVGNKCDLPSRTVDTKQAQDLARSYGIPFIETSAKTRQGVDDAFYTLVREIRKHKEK

KRas^G12V = target: T3, KRas^G12V (Homo sapiens, UniProt P01116, G12V); assay: KRas binding assay (TR-FRET tracer displacement), KRas G12V
T3 construct: Biotinylated KRas (corresponding to amino acids 1-169, produced at Accelegan Inc.); biotin (biotinylated); purchased Accelegan Inc
T3 sequence (P01116 1-169 isoform P01116-2 G12V): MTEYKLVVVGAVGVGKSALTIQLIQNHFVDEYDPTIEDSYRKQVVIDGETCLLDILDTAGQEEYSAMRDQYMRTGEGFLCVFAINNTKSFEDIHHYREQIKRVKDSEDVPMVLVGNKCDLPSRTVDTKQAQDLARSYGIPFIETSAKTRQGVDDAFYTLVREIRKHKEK

[2] = tested on: KRas-mediated phosphorylation of ERK in H727 cells; assay: Inhibition of KRas-mediated phosphorylation of ERK (Cisbio HTRF pERK), H727 cells; assay type: cell-based; conditions: Homo sapiens, NCI-H727, H727 cells; HTRF pERK
In short: as §1

IC50 [1] [nM]	IC50 (KRas^G12D) [nM]	IC50 (KRas^G12R) [nM]	IC50 (KRas^G12V) [nM]	IC50 [2] [nM]	SMILES
> 10000	89	16	11	> 10000	CCc1c(F)ccc2cc(O)cc(-c3ncc4c(NCc5cc(C(=O)N(C)C)nn5[C@H]5C[C@@H](O)C5)nc(OC[C@@]56CCCN5C[C@H](F)C6)nc4c3F)c12 [Example 678, 5-(((7-(8-ethyl-7-fluoro-3-hydroxynaphthalen-1-yl)-8-fluoro-2-(((2R,7aS)-2-fluorohexahydro-1H-pyrrolizin-7a-yl)methoxy)pyrido[4,3-d]pyrimidin-4-yl)amino)methyl)-1-(cis-3-hydroxycyclobutyl)-N,N-dimethyl-1H-pyrazole-3-carboxamide]
> 10000	710	541	192	> 10000	CCc1c(F)ccc2cc(O)cc(-c3ncc4c(NCc5cc(C(=O)N(C)C)nn5[C@H]5C[C@H](O)C5)nc(OC[C@@]56CCCN5C[C@H](F)C6)nc4c3F)c12 [Example 682, 5-(((7-(8-ethyl-7-fluoro-3-hydroxynaphthalen-1-yl)-8-fluoro-2-(((2R,7aS)-2-fluorotetrahydro-1H-pyrrolizin-7a(5H)-yl)methoxy)pyrido[4,3-d]pyrimidin-4-yl)amino)methyl)-1-(trans-3-hydroxycyclobutyl)-N,N-dimethyl-1H-pyrazole-3-carboxamide]
> 10000	1650	349	98	> 10000	CCc1c(F)ccc2cc(O)cc(-c3ncc4c(N5CCC(N6C(=O)OC7CN(C(C)=O)CC76)CC5)nc(OC[C@@]56CCCN5C[C@H](F)C6)nc4c3F)c12 (stereo partly drawn) [Example 689, 5-acetyl-3-(1-(7-(8-ethyl-7-fluoro-3-hydroxynaphthalen-1-yl)-8-fluoro-2-(((2R,7aS)-2-fluorotetrahydro-1H-pyrrolizin-7a(5H)-yl)methoxy)pyrido[4,3-d]pyrimidin-4-yl)piperidin-4-yl)hexahydro-2H-pyrrolo[3,4-d]oxazol-2-one]
> 10000	509	38	25	> 10000	CCc1c(F)ccc2cc(O)cc(-c3ncc4c(NCc5cn(C(=O)N(C)C)nc5NC(=O)C5CC(O)C5)nc(OC[C@@]56CCCN5C[C@H](F)C6)nc4c3F)c12 (stereo partly drawn) [Example 693, 4-(((7-(8-ethyl-7-fluoro-3-hydroxynaphthalen-1-yl)-8-fluoro-2-(((2R,7aS)-2-fluorohexahydro-1H-pyrrolizin-7a-yl)methoxy)pyrido[4,3-d]pyrimidin-4-yl)amino)methyl)-3-(3-hydroxycyclobutanecarboxamido)-N,N-dimethyl-1H-pyrazole-1-carboxamide]

The next lines start with the compound.

SMILES	IC50 [1] [nM]	IC50 (KRas^G12D) [nM]	IC50 (KRas^G12R) [nM]	IC50 (KRas^G12V) [nM]	IC50 [2] [nM]
CCc1c(F)ccc2cc(O)cc(-c3ncc4c(N5CCCn6nc(C(=O)N(C)CCO)cc6C5)nc(OC[C@@]56CCCN5C[C@H](F)C6)nc4c3F)c12 [Example 679, 5-(7-(8-ethyl-7-fluoro-3-hydroxynaphthalen-1-yl)-8-fluoro-2-(((2R,7aS)-2-fluorohexahydro-1H-pyrrolizin-7a-yl)methoxy)pyrido[4,3-d]pyrimidin-4-yl)-N-(2-hydroxyethyl)-N-methyl-5,6,7,8-tetrahydro-4H-pyrazolo[1,5-a][1,4]diazepine-2-carboxamide]	> 10000	124	190	105	9490
CCc1c(F)ccc2cc(O)cc(-c3ncc4c(NCc5cc(C(=O)N(C)C)n([C@H]6C[C@H](O)C6)n5)nc(OC[C@@]56CCCN5C[C@H](F)C6)nc4c3F)c12 [Example 680, 3-(((7-(8-ethyl-7-fluoro-3-hydroxynaphthalen-1-yl)-8-fluoro-2-(((2R,7aS)-2-fluorohexahydro-1H-pyrrolizin-7a-yl)methoxy)pyrido[4,3-d]pyrimidin-4-yl)amino)methyl)-1-(trans-3-hydroxycyclobutyl)-N,N-dimethyl-1H-pyrazole-5-carboxamide]	> 10000	473	234	43	> 10000
CCc1c(F)ccc2cc(O)cc(-c3ncc4c(NCc5cc(C(=O)N(C)C)n([C@H]6C[C@@H](O)C6)n5)nc(OC[C@@]56CCCN5C[C@H](F)C6)nc4c3F)c12 [Example 681, 3-(((7-(8-ethyl-7-fluoro-3-hydroxynaphthalen-1-yl)-8-fluoro-2-(((2R,7aS)-2-fluorohexahydro-1H-pyrrolizin-7a-yl)methoxy)pyrido[4,3-d]pyrimidin-4-yl)amino)methyl)-1-(cis-3-hydroxycyclobutyl)-N,N-dimethyl-1H-pyrazole-5-carboxamide]	> 10000	497	167	51	> 10000
CCc1c(F)ccc2cc(O)cc(-c3ncc4c(NCc5cc(C(=O)N(C)C)nn5C[C@H]5C[C@H](O)C5)nc(OC[C@@]56CCCN5C[C@H](F)C6)nc4c3F)c12 [Example 686, 5-(((7-(8-ethyl-7-fluoro-3-hydroxynaphthalen-1-yl)-8-fluoro-2-(((2R,7aS)-2-fluorohexahydro-1H-pyrrolizin-7a-yl)methoxy)pyrido[4,3-d]pyrimidin-4-yl)amino)methyl)-1-((trans-3-hydroxycyclobutyl)methyl)-N,N-dimethyl-1H-pyrazole-3-carboxamide]	> 10000	21	5	6	8840
CCc1c(F)ccc2cc(O)cc(-c3ncc4c(NCc5cc(C(=O)N(C)C)nn5C[C@H]5C[C@@H](O)C5)nc(OC[C@@]56CCCN5C[C@H](F)C6)nc4c3F)c12 [Example 687, 5-(((7-(8-ethyl-7-fluoro-3-hydroxynaphthalen-1-yl)-8-fluoro-2-(((2R,7aS)-2-fluorohexahydro-1H-pyrrolizin-7a-yl)methoxy)pyrido[4,3-d]pyrimidin-4-yl)amino)methyl)-1-((cis-3-hydroxycyclobutyl)methyl)-N,N-dimethyl-1H-pyrazole-3-carboxamide]	> 10000	405	175	145	> 10000
CCc1c(F)ccc2cc(O)cc(-c3ncc4c(NCc5cc(C(=O)N(C)C)n(CC6CC(O)C6)n5)nc(OC[C@@]56CCCN5C[C@H](F)C6)nc4c3F)c12 (stereo partly drawn) [Example 688, 3-(((7-(8-ethyl-7-fluoro-3-hydroxynaphthalen-1-yl)-8-fluoro-2-(((2R,7aS)-2-fluorohexahydro-1H-pyrrolizin-7a-yl)methoxy)pyrido[4,3-d]pyrimidin-4-yl)amino)methyl)-1-((3-hydroxycyclobutyl)methyl)-N,N-dimethyl-1H-pyrazole-5-carboxamide]	> 10000	357	160	42	> 10000
CCc1c(F)ccc2cc(O)cc(-c3ncc4c(NCc5cc(C(=O)N(C)C)nn5C5CS(=O)(=O)C5)nc(OC[C@@]56CCCN5C[C@H](F)C6)nc4c3F)c12 [Example 691, 1-(1,1-dioxidothietan-3-yl)-5-(((7-(8-ethyl-7-fluoro-3-hydroxynaphthalen-1-yl)-8-fluoro-2-(((2R,7aS)-2-fluorohexahydro-1H-pyrrolizin-7a-yl)methoxy)pyrido[4,3-d]pyrimidin-4-yl)amino)methyl)-N,N-dimethyl-1H-pyrazole-3-carboxamide]	> 10000	5	6	2	> 10000
CCc1c(F)ccc2cc(O)cc(-c3ncc4c(N5CC6C(=O)NC(=O)C6C5)nc(OC[C@]56CCCN5[C@H](COC(=O)N(C)C)CC6)nc4c3F)c12 (stereo partly drawn) [Example 708, ((3S,7aR)-7a-(((4-(4,6-dioxohexahydropyrrolo[3,4-c]pyrrol-2(1H)-yl)-7-(8-ethyl-7-fluoro-3-hydroxynaphthalen-1-yl)-8-fluoropyrido[4,3-d]pyrimidin-2-yl)oxy)methyl)hexahydro-1H-pyrrolizin-3-yl)methyl dimethylcarbamate]	> 10000	19900	39800	42900	> 10000
CN(C)C(=O)n1cc(CNc2nc(OC[C@@]34CCCN3C[C@H](F)C4)nc3c(F)c(-c4cc(O)cc5ccc(F)c(Cl)c45)ncc23)c(NC(=O)[C@H]2C[C@H](O)C2)n1 [Example 775, 4-(((7-(8-chloro-7-fluoro-3-hydroxynaphthalen-1-yl)-8-fluoro-2-(((2R,7aS)-2-fluorohexahydro-1H-pyrrolizin-7a-yl)methoxy)pyrido[4,3-d]pyrimidin-4-yl)amino)methyl)-3-((1r,3S)-3-hydroxycyclobutanecarboxamido)-N,N-dimethyl-1H-pyrazole-1-carboxamide]	> 10000	23	3	4	> 10000
CCc1c(F)ccc2cc(O)cc(-c3ncc4c(N5CCC[C@@](C)(O)C5)nc(OCC5(CN(C)C)CC5CO)nc4c3F)c12 (stereo partly drawn) [Example 813, (3R)-1-(2-((1-((dimethylamino)methyl)-2-(hydroxymethyl)cyclopropyl)methoxy)-7-(8-ethyl-7-fluoro-3-hydroxynaphthalen-1-yl)-8-fluoropyrido[4,3-d]pyrimidin-4-yl)-3-methylpiperidin-3-ol]	1080	< 2	4	< 2	2550
